Assay results as given in ChEMBL document CHEMBL4706668, “Minimization of apoptosis-inducing CPP-Bim peptide” (Bioorg Med Chem Lett, 2021).
The source made the active and inactive calls. No cut-off for these calls is given here. Residues, ends and D or L forms follow the SMILES beside them.

What was measured:
HeLa [1] = assay: Induction of apoptosis in human HeLa cells at 10 uM incubated for 3 hrs followed by compound washout by NucView-488 staining based fluorescence microscopy; assay type: functional, cell-based
CHO [2] = assay: Induction of apoptosis in CHO cells at 10 uM incubated for 3 hrs followed by compound washout by NucView-488 staining based fluorescence microscopy; assay type: cell-based, Cricetulus griseus; details: chinese hamster
[3] = Drug distribution in cytosol of human HeLa cells at 2 uM incubated for 3 hrs followed by compound washout and subsequent irradiation with mercury lamp at 10J/cm2 using Alexa Fluor-546 labeled compound by fluorescence microscopy; assay type: ADME, subcellular
HeLa [4] = assay: Induction of apoptosis in human HeLa cells at 10 uM incubated for 3 hrs followed by compound washout by NucView-488 staining based fluorescence microscopy relative to control; assay type: functional
CHO [5] = assay: Induction of apoptosis in CHO cells at 10 uM incubated for 3 hrs followed by compound washout by NucView-488 staining based fluorescence microscopy relative to control; assay type: cell-based, Cricetulus griseus; details: chinese hamster
HeLa [6] = assay: Induction of apoptosis in human HeLa cells at 2 uM incubated for 3 hrs followed by compound washout and subsequent irradiation with mercury lamp at 10J/cm2 and further incubated for 3 hrs using Alexa Fluor-546 labeled compound by fluorescence microscopy; assay type: functional, cell-based

Molecule: CC[C@H](C)[C@H](NC(=O)[C@H](CCCNC(=N)N)NC(=O)[C@H](CCCNC(=N)N)NC(=O)[C@H](CC(C)C)NC(=O)[C@H](CCC(=O)O)NC(=O)[C@H](CS)NC(=O)[C@H](C)NC(=O)[C@@H](NC(=O)[C@H](Cc1c[nH]c2ccccc12)NC(=O)[C@@H](NC(=O)[C@H](CCCNC(=N)N)NC(=O)[C@H](CCCNC(=N)N)NC(=O)[C@H](CCCNC(=N)N)NC(=O)[C@@H](N)CCCNC(=N)N)[C@@H](C)CC)[C@@H](C)CC)C(=O)NCC(=O)N[C@@H](CC(=O)O)C(=O)N[C@@H](CCC(=O)O)C(=O)N[C@@H](Cc1ccccc1)C(=O)N[C@@H](CC(N)=O)C(=O)N[C@@H](C)C(=O)N[C@@H](Cc1ccc(O)cc1)C(=O)N[C@@H](Cc1ccc(O)cc1)C(=O)NCC(=O)N[C@@H](CS)C(=O)O (H-RRRRIWIACELRRIGDEFNAYYGC-OH)
- Activity (HeLa [1]): inactive
- Activity (CHO [2]): Not Active

Molecule: H-RKKRRQRRRAQELRRIGDEFNAYYARGC-OH
- Activity (HeLa [1]): inactive

Molecule: H-RKKRRQRRREIWIAQELRRIGC-OH
- Activity (HeLa [1]): inactive

Molecule: H-RKKRRQRRREIWIAQELRRIGDEFGC-OH
- Activity (HeLa [1]): inactive

Molecule: H-RKKRRQRRREIWIAQELRRIGDEFNAGC-OH
- Activity (HeLa [1]): inactive

Molecule: H-RKKRRQRRREIWIAQELRRIGDEFNAYYARGC-OH
- Drug uptake [3]: Active

Molecule: H-RKKRRQRRREIWIAQELRRIGDEFNAYYGC-OH
- Activity (HeLa [4]): 79%
- Activity (CHO [5]): 44%

Molecule: H-RKKRRQRRREIWIAQELRRIGDGC-OH
- Activity (HeLa [1]): inactive

Molecule: H-RKKRRQRRRIAQELRRIGDEFNAYYARGC-OH
- Activity (HeLa [1]): inactive

Molecule: H-RKKRRQRRRIWIAQELRRIGDEFNAYYARGC-OH
- Activity (HeLa [4]): 85%
- Activity (CHO [5]): 31%

Molecule: H-RKKRRQRRRIWIAQELRRIGDEFNAYYGC-OH
- Drug uptake [3]: Active
- Activity (HeLa [6]): Active

Molecule: H-RKKRRQRRRWGC-OH
- Activity (HeLa [6]): inactive

Molecule: H-RKKRRQRRRWIAQELRRIGDEFNAYYARGC-OH
- Activity (HeLa [1]): Active

Molecule: H-RKKRRQRRRWIAQELRRIGDGC-OH
- Activity (HeLa [1]): Active

Molecule: H-RRIWIAQELRRIGDEFNAYYGC-OH
- Activity (HeLa [1]): inactive
- Activity (CHO [2]): Not Active

Molecule: H-RRRRRRIWIAQELRRIGDEFNAYYGC-OH
- Activity (HeLa [1]): inactive
- Activity (CHO [2]): Not Active

Molecule: H-RRRRRRRRIWIAQELRRIGDEFNAYYGC-OH
- Activity (HeLa [4]): 70%
- Activity (HeLa [1]): Active
- Drug uptake [3]: Active
- Activity (HeLa [6]): Active
